Results: patent publication US8263596B2, “Kinase inhibitors and method of treating cancer” (University Health Network, priority 2010, dated 2012)
Where two headings read alike, the source gives them in different places.

Key:
Aurora B = Aurora B (Homo sapiens, UniProt Q96GD4); assay: Aurora B inhibition assay (Z-Lyte); format: biochemical; settings: read-out: IC50 Ranges Aurora B
human PLK4 = target: T1, human PLK4 (Homo sapiens, UniProt O00444); assay: PLK4 inhibition assay (indirect ELISA); format: biochemical
T1 construct: amino terminal GST fusion of residues 1-391 of human PLK4; made in house; host or cells: E. coli
T1 sequence (O00444 1-391): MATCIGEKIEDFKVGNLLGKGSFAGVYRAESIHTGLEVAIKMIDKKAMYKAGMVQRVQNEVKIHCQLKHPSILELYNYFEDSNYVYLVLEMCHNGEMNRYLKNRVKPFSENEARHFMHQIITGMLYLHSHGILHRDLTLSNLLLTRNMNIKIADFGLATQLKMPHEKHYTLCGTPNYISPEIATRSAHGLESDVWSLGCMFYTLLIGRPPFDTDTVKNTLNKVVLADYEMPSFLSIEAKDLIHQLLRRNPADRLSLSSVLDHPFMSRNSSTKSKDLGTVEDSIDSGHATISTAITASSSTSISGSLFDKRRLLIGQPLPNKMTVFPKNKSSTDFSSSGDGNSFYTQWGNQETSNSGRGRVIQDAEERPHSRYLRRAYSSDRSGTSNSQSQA

Aurora B, sequence (Q96GD4 whole entry): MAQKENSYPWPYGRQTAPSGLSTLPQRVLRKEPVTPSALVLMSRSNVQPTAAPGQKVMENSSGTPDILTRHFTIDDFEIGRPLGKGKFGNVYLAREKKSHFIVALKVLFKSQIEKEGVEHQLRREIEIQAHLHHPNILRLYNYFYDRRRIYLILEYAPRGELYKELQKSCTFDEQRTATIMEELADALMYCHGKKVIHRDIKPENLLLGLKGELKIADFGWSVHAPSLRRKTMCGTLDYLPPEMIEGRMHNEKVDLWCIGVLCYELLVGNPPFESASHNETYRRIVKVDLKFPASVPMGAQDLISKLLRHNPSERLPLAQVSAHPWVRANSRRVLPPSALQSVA

| SMILES | IC50 (Aurora B) [nM] | IC50 (human PLK4; read-out: IC50 Ranges PLK4) [nM] | IC50 (human PLK4) [nM] |
| --- | --- | --- | --- |
| COc1ccc2c(c1)[C@]1(C[C@H]1c1ccc3c(-c4ccc(N5CCC(N(C)C)CC5)cc4)n[nH]c3c1)C(=O)N2 (relative stereo) [Example A119, (1R*,2S*)-2-(3-(4-(4-(dimethylamino)piperidin-1-yl)phenyl)-1H-indazol-6-yl)-5′-methoxy spiro[cyclopropane-1,3′-indolin]-2′-one 2,2,2-trifluoroacetate] | < 100 | < 100 | – |
| COc1ccc2c(c1)[C@]1(C[C@H]1c1ccc3c(/C=C/c4ccc(N5CCN(C(C)C)CC5)cc4)n[nH]c3c1)C(=O)N2 (relative stereo) [Example A189, (1R*,2S*)-(E)-2-(3-(4-(4-isopropylpiperazin-1-yl)styryl)-1H-indazol-6-yl)-5′-methoxyspiro[cyclopropane-1,3′-indolin]-2′-one 2,2,2-trifluoroacetate] | < 100 | < 100 | – |
| CN1CCN(c2ccc(-c3n[nH]c4cc([C@@H]5C[C@@]56C(=O)Nc5ccc(Br)cc56)ccc34)cn2)CC1 (relative stereo) [Example A19, (1R*,2S*)-5′-bromo-2-(3-(6-(4-methylpiperazin-1-yl)pyridin-3-yl)-1H-indazol-6-yl)spiro[cyclopropane-1,3′-indolin]-2′-one] | < 100 | < 100 | – |
| COc1ccc2c(c1)[C@]1(C[C@H]1c1ccc3c(-c4ccc(N5CCC(O)CC5)cc4)n[nH]c3c1)C(=O)N2 (relative stereo) [Example A118, (1R*,2S*)-2-(3-(4-(4-hydroxypiperidin-1-yl)phenyl)-1H-indazol-6-yl)-5′-methoxyspiro[cyclopropane-1,3′-indolin]-2′-one 2,2,2-trifluoroacetate] | – | < 100 | – |
| COc1ccc2c(c1)[C@]1(C[C@H]1c1ccc3c(-c4ccc(N5CCC(N(C)C)CC5)cc4)n[nH]c3c1)C(=O)N2 [Example A120, (1R,2S)-2-(3-(4-(4-(dimethylamino)piperidin-1-yl)phenyl)-1H-indazol-6-yl)-5′-methoxyspiro[cyclopropane-1,3′-indolin]-2′-one 2,2,2-trifluoroacetate] | < 100 | < 100 | – |
| COc1ccc2c(c1)[C@]1(C[C@@H]1c1ccc3c(-c4ccc(N5CCN(C)CC5)nc4)n[nH]c3c1)C(=O)N2 (relative stereo) [Example A17, (1R*,2R*)-5′-Methoxy-2-(3-(6-(4-methylpiperazin-1-yl)pyridin-3-yl)-1H-indazol-6-yl)spiro[cyclopropane-1,3′-indolin]-2′-one] | 100 to 1000 | – | < 100 |
| COc1cc2c(cc1OC)[C@]1(C[C@H]1c1ccc3c(/C=C/c4ccc(CN(C)C)cc4)n[nH]c3c1)C(=O)N2 (relative stereo) [Example A168, (1R*,2S*)-(E)-2-(3-(4-((dimethylamino)methyl)styryl)-1H-indazol-6-yl)-5′,6′-dimethoxyspiro[cyclopropane-1,3′-indolin]-2′-one 2,2,2-trifluoroacetate] | < 100 | < 100 | – |
| COc1ccc2c(c1)[C@]1(C[C@H]1c1ccc3c(-c4ccc(N5CCN(C)CC5)cc4)n[nH]c3c1)C(=O)N2C (relative stereo) [Example A100, (1R*,2S*)-5′-methoxy-1′-methyl-2-(3-(4-(4-methylpiperazin-1-yl)phenyl)-1H-indazol-6-yl)spiro[cyclopropane-1,3′-indolin]-2′-one 2,2,2-trifluoroacetate] | < 100 | < 100 | – |
| COc1ccc2c(c1)[C@]1(C[C@H]1c1ccc3c(C#Cc4ccc(C=O)cc4)n[nH]c3c1)C(=O)N2 (relative stereo) [Example A137, 4-((6-((1R*,2S*)-5′-methoxy-2′-oxospiro[cyclopropane-1,3′-indoline]-2-yl)-1H-indazol-3-yl)ethynyl)benzaldehyde] | < 100 | < 100 | – |
| O=C1Nc2ccc(F)cc2[C@]12C[C@H]2c1ccc2c(I)n[nH]c2c1 (relative stereo) [Example A40, (1R*,2S*)-5′-fluoro-2-(3-iodo-1H-indazol-6-yl)spiro[cyclopropane-1,3′-indolin]-2′-one] | 100 to 1000 | 100 to 1000 | – |
| COc1ccc2c(c1)[C@]1(C[C@H]1c1ccc3c(/C=C/c4ccc(N5CCOCC5)nc4)n[nH]c3c1)C(=O)N2 (relative stereo) [Example A213, (1R*,2S*)-5′-methoxy-2-(3-((E)-2-(6-morpholinopyridin-3-yl)vinyl)-1H-indazol-6-yl)spiro[cyclopropane-1,3′-indolin]-2′-one 2,2,2-trifluoroacetate] | < 100 | < 100 | – |
| CN1CCN(C(=O)c2ccc(-c3n[nH]c4cc([C@@H]5C[C@@]56C(=O)Nc5ccccc56)ccc34)cc2)CC1 (relative stereo) [Example A156, (1R*,2S*)-2-(3-(4-(4-methylpiperazine-1-carbonyl)phenyl)-1H-indazol-6-yl)spiro[cyclopropane-1,3′-indolin]-2′-one 2,2,2-trifluoroacetate] | 100 to 1000 | < 100 | – |
| O=C1Nc2ncc(Br)cc2[C@]12C[C@H]2c1ccc2cn[nH]c2c1 (racemic) [Example A12, (1R*,2S*)-5′-bromo-2-(1H-indazol-6-yl)spiro[cyclopropane-1,3′-pyrrolo[2,3-b]pyridin]-2′(1′H)-one] | – | 100 to 1000 | – |

More lines, main results first:

| IC50 (Aurora B) [nM] | IC50 (human PLK4; read-out: IC50 Ranges PLK4) [nM] | SMILES | IC50 (human PLK4) [nM] |
| --- | --- | --- | --- |
| < 100 | < 100 | COc1ccc2c(c1)[C@]1(CC1c1ccc3c(/C=C/c4cc(F)c(CN(C)C)c(F)c4)n[nH]c3c1)C(=O)N2 (stereo in doubt) [Example A215, (1R*,2S*)-(E)-2-(3-(4-((dimethylamino)methyl)-3,5-difluorostyryl)-1H-indazol-6-yl)-5′-methoxyspiro[cyclopropane-1,3′-indolin]-2′-one 2,2,2-trifluoro acetate] | – |
| < 100 | < 100 | COc1ccc2c(c1)[C@]1(C[C@H]1c1ccc3c(C#Cc4ccc(CN5CCOCC5)cc4)n[nH]c3c1)C(=O)N2 (relative stereo) [Example A138, (1R*,2S*)-5′-methoxy-2-(3-((4-(morpholinomethyl)phenyl)ethynyl)-1H-indazol-6-yl)spiro[cyclopropane-1,3′-indolin]-2′-one 2,2,2-trifluoroacetate] | – |
| < 100 | – | CN1CCN(c2ccc(-c3n[nH]c4cc([C@@H]5C[C@@]56C(=O)Nc5ccc(F)cc56)ccc34)cn2)CC1 (relative stereo) [Example A210, (1R*,2S*)-5′-fluoro-2-(3-(6-(4-methylpiperazine-1-yl)pyridine-3-yl)-1H-indazol-6-yl)-spiro[cyclopropane-1,3′-indolin]-2′-one] | – |
| – | 100 to 1000 | O=C1Nc2ccccc2[C@]12C[C@H]2c1ccc2c(-c3cccc(CN4CCOCC4)c3)n[nH]c2c1 (relative stereo) [Example A153, (1R*,2S*)-2-(3-(3-(morpholinomethyl)phenyl)-1H-indazol-6-yl)spiro [cyclopropane-1,3′-indolin]-2′-one 2,2,2-trifluoroacetate] | – |
| 100 to 1000 | < 100 | CN1CCN(Cc2ccc(-c3n[nH]c4cc([C@@H]5C[C@@]56C(=O)Nc5ccccc56)ccc34)cc2)CC1 (relative stereo) [Example A155, (1R*,2S*)-2-(3-(4-((4-methylpiperazin-1-yl)methyl)phenyl)-1H-indazol-6-yl)spiro[cyclopropane-1,3′-indolin]-2′-one bis-2,2,2-trifluoroacetate] | – |
| 100 to 1000 | < 100 | CC(C)CCN1C(=O)[C@@]2(C[C@H]2c2ccc3c(/C=C/c4ccc(CN(C)C)cc4)n[nH]c3c2)c2ccccc21 (relative stereo) [Example A176, (1R*,2S*)-(E)-2-(3-(4-((dimethylamino)methyl)styryl)-1H-indazol-6-yl)-1′-isopentylspiro[cyclopropane-1,3′-indolin]-2′-one] | – |
| < 100 | < 100 | COc1ccc2c(c1)[C@]1(C[C@H]1c1ccc3c(-c4ccc(CN5CCN(C)CC5)cc4)n[nH]c3c1)C(=O)N2 (relative stereo) [Example A140, (1R*,2S*)-5′-methoxy-2-(3-(4-((4-methylpiperazin-1-yl)methyl)phenyl)-1H-indazol-6-yl)spiro[cyclopropane-1,3′-indolin]-2′-one bis-2,2,2-trifluoro acetate] | – |
| < 100 | < 100 | CN1CCN(c2ccc(-c3n[nH]c4cc([C@@H]5C[C@@]56C(=O)Nc5ccc(OC(F)F)cc56)ccc34)cn2)CC1 (relative stereo) [Example A209, (1R*,2S*)-5′-(difluoromethoxy)-2-(3-(6-(4-methylpiperazine-1-yl)pyridine-3-yl)-1H-indazol-6-yl)spiro[cyclopropane-1,3′-indolin]-2′-one 2,2,2-trifluoro acetate] | – |
| < 100 | < 100 | NC(=O)CN1C(=O)[C@@]2(C[C@H]2c2ccc3c(/C=C/c4ccc(CN5CCCCC5)cc4)n[nH]c3c2)c2ccccc21 (relative stereo) [Example A165, 2-((1R*,2S*)-(E)-2′-oxo-2-(3-(4-(piperidin-1-ylmethyl)styryl)-1H-indazol-6-yl)spiro[cyclopropane-1,3′-indoline]-1′-yl)acetamide 2,2,2-trifluoroacetate] | – |
| < 100 | < 100 | CN(C)Cc1cccc(/C=C/c2n[nH]c3cc([C@@H]4C[C@@]45C(=O)Nc4ccccc45)ccc23)c1 (relative stereo) [Example A162, (1R*,2S*)-(E)-2-(3-(3-((dimethylamino)methyl)styryl)-1H-indazol-6-yl) spiro[cyclopropane-1,3′-indolin]-2′-one 2,2,2-trifluoroacetate] | – |
